# Test results published in BindingDB's records for doi:10.1016/s0960-894x(00)00385-1 (Merck Research Laboratories, 2001).
# Assay: Inhibition of aggregation of human gel-filtered platelets measured by light transmittance method at 37 degrees C.
row,Structure (SMILES),IC50 [µM]
1,"O=C(CN1CCc2ccc(N3CCNCC3)cc2C1=O)NC[C@H](NS(=O)(=O)c1ccccc1)C(=O)O [(S)-2-Benzenesulfonylamino-3-[2-(1-oxo-7-piperazin-1-yl-3,4-dihydro-1H-isoquinolin-2-yl)-acetylamino]-propionic acid]",0.035
2,C#CC(CC(=O)O)NC(=O)CN(C(=O)c1cccc(C2CCNCC2)c1)C1CC1 (stereo not drawn) [3-{2-[Cyclopropyl-(3-piperidin-4-yl-benzoyl)-amino]-acetylamino}-pent-4-ynoic acid],0.015
3,C[C@@H](/C=C/CN1CCC[C@@H](CCC2CCNCC2)C1=O)CC(=O)O [(E)-(R)-3-Methyl-6-[(R)-2-oxo-3-(2-piperidin-4-yl-ethyl)-piperidin-1-yl]-hex-4-enoic acid],0.057
4,"CC(CC(=O)O)NC(=O)c1ccc2c(c1)C(=O)N(CCC1CCNCC1)C2 (stereo not drawn) [3-{[3-Oxo-2-(2-piperidin-4-yl-ethyl)-2,3-dihydro-1H-isoindole-5-carbonyl]-amino}-butyric acid]",0.065
5,C#C[C@H](CC(=O)O)NC(=O)C[C@H]1CCCN(CCc2ccnc(N)c2)C1=O [(S)-3-(2-{(R)-1-[2-(2-Amino-pyridin-4-yl)-ethyl]-2-oxo-piperidin-3-yl}-acetylamino)-pent-4-ynoic acid],0.019
6,"O=C(O)C[C@@H](CO)NC(=O)c1ccc2c(c1)C(=O)N(CCC1CCNCC1)C2 [(S)-4-Hydroxy-3-{[3-oxo-2-(2-piperidin-4-yl-ethyl)-2,3-dihydro-1H-isoindole-5-carbonyl]-amino}-butyric acid]",0.008
7,"O=C(O)C[C@@H](CO)NC(=O)CN1CCc2ccc(N3CCNCC3)cc2C1=O [(S)-4-Hydroxy-3-[2-(1-oxo-7-piperazin-1-yl-3,4-dihydro-1H-isoquinolin-2-yl)-acetylamino]-butyric acid]",0.081
8,"Cc1ccc(S(=O)(=O)N[C@@H](CNC(=O)c2cc3n(n2)CCCN(CCC2CCNCC2)C3=O)C(=O)O)cc1 [(S)-3-{[4-Oxo-5-(2-piperidin-4-yl-ethyl)-5,6,7,8-tetrahydro-4H-1,5,8a-triaza-azulene-2-carbonyl]-amino}-2-(toluene-4-sulfonylamino)-propionic acid]",0.008
9,O=C(NC[C@H](NS(=O)(=O)c1ccccc1)C(=O)O)c1cc2cc(OCCC3CCNCC3)ccc2[nH]1 [(S)-2-Benzenesulfonylamino-3-{[5-(2-piperidin-4-yl-ethoxy)-1H-indole-2-carbonyl]-amino}-propionic acid],0.01
10,O=C(NC[C@H](NS(=O)(=O)c1ccccc1)C(=O)O)c1ccc(OCCC2CCNCC2)cc1 [2-Benzenesulfonylamino-3-[4-(2-piperidin-4-yl-ethoxy)-benzoylamino]-propionic acid],0.013
11,C[C@H](CC(=O)O)NC(=O)CN1CCC[C@@H](CCC2CCNCC2)C1=O [3-{2-[2-Oxo-3-(2-piperidin-4-yl-ethyl)-piperidin-1-yl]-acetylamino}-butyric acid (L-734217)],0.032
12,O=C(O)C[C@H](NC(=O)CN1CCC[C@@H](CCC2CCNCC2)C1=O)c1cccnc1 [(S)-3-{2-[(R)-2-Oxo-3-(2-piperidin-4-yl-ethyl)-piperidin-1-yl]-acetylamino}-3-pyridin-3-yl-propionic acid],0.01
13,C#C[C@H](CC(=O)O)NC(=O)CN1CCC[C@@H](CCc2ccnc(N)c2)C1=O [(S)-3-(2-{(R)-3-[2-(2-Amino-pyridin-4-yl)-ethyl]-2-oxo-piperidin-1-yl}-acetylamino)-pent-4-ynoic acid],0.028
14,O=C(O)C[C@H](NC(=O)C[C@H]1CCCN(CCC2CCNCC2)C1=O)c1cccnc1 [(S)-3-{2-[(R)-2-Oxo-1-(2-piperidin-4-yl-ethyl)-piperidin-3-yl]-acetylamino}-3-pyridin-3-yl-propionic acid],0.009
15,C#CC(CCCN1CCC[C@@H](CCC2CCNCC2)C1=O)CC(=O)O (stereo partly drawn) [3-Ethynyl-6-[(R)-2-oxo-3-(2-piperidin-4-yl-ethyl)-piperidin-1-yl]-hexanoic acid],0.051
16,"O=C(NC[C@H](NS(=O)(=O)c1ccccc1)C(=O)O)c1ccc2c(c1)C(=O)N(CCC1CCNCC1)C2 [(S)-2-Benzenesulfonylamino-3-{[3-oxo-2-(2-piperidin-4-yl-ethyl)-2,3-dihydro-1H-isoindole-5-carbonyl]-amino}-propionic acid]",0.008
17,"C#C[C@H](CC(=O)O)NC(=O)c1ccc2c(c1)C(=O)N(CCc1ccnc(N)c1)C2 [(S)-3-({2-[2-(2-Amino-pyridin-4-yl)-ethyl]-3-oxo-2,3-dihydro-1H-isoindole-5-carbonyl}-amino)-pent-4-ynoic acid]",0.027
18,O=C(CN1CCC[C@@H](CCC2CCNCC2)C1=O)NC[C@H](NS(=O)(=O)c1ccccc1)C(=O)O [(S)-2-Benzenesulfonylamino-3-{2-[(R)-2-oxo-3-(2-piperidin-4-yl-ethyl)-piperidin-1-yl]-acetylamino}-propionic acid],0.011
19,C#C[C@H](CC(=O)O)NC(=O)CN1CCc2ccc(N3CCNCC3)cc2C1=O [L-767679],0.015
20,C#C[C@H](CC(=O)O)NC(=O)CN1CCC[C@@H](CCC2CCNCC2)C1=O [(S)-3-{2-[(R)-2-Oxo-3-(2-piperidin-4-yl-ethyl)-piperidin-1-yl]-acetylamino}-pent-4-ynoic acid],0.013
21,"O=C(O)C[C@H](NC(=O)CN1CCc2ccc(N3CCNCC3)cc2C1=O)c1cccnc1 [(S)-3-[2-(1-Oxo-7-piperazin-1-yl-3,4-dihydro-1H-isoquinolin-2-yl)-acetylamino]-3-pyridin-3-yl-propionic acid]",0.013
22,C#C[C@H](CC(=O)O)NC(=O)C[C@H]1CCCN(CCC2CCNCC2)C1=O [(S)-3-{2-[(R)-2-Oxo-1-(2-piperidin-4-yl-ethyl)-piperidin-3-yl]-acetylamino}-pent-4-ynoic acid],0.015
23,"O=C(O)CCNC(=O)CN1CCc2ccc(N3CCNCC3)cc2C1=O [3-[2-(1-Oxo-7-piperazin-1-yl-3,4-dihydro-1H-isoquinolin-2-yl)-acetylamino]-propionic acid]",0.14
